Results as given in ChEMBL document CHEMBL1130920, “The structure-activity relationships of a series of suicide inhibitors of phospholipase A2” (Bioorg Med Chem Lett, 1998).

assay: Compound was tested for the inhibitory activity against cobra venom PLA2 (Naja naja atra) by using the Dole assay

Point of comparison: `[O-][S+](c1ccc(O)cc1)C(F)(F)F` (centres undefined), Activity (nM min-1 mg-1) 2. Against it:
- O=S(=O)(c1ccc(O)cc1)C(F)(F)F — higher, 11.9
- CS(=O)(=O)c1ccc(O)cc1 — higher, 11.1
- O=[N+]([O-])c1ccc(O)cc1 — higher, 2.5
